# Target: T1, 5HTR2B (Homo sapiens, UniProt P41595)
# T1 construct: host or cells: human Maverick/293 cells
# Test: 5HTR2B antagonist activity, calcium mobilization assay in human Maverick/293 cells (serotonin as agonist)
# Type: cell-based
# Conditions: intracellular calcium, emission 525 nm, read-out: Ca assay IC50
# Description: The 5HTR2B antagonist activity was measured using human Maverick/293 cells in a calcium mobilization assay. The measurement starting with plating human Maverick/293 cells (log phase) onto 96-well black and incubate at 37° C. overnight, Followed by starving cells for 2 h by changing complete medium to DMEM without FBS, removing the medium from the 96-well plate. Loading staining calcium buffer into each well and incubated the plate at 37° C. for 50 min. After removal of staining calcium buffer, diluted antagonist were added into the well, incubate 15 to 30 minutes. Dispense serotonin as the 5HTR2B agonists into each well. Intracellular calcium concentration is recorded for 80 seconds by monitoring an emission at a wavelength of 525 nm with an excitation wavelength of 485 nm. Inhibition efficiency of the cell line was determined following the equation: % Inhibition=100%−(D−B)/(S−B)*100%. (S: The peak value in the presence of agonist serotonin; D: The peak value in the presence of different dilution compound or serotonin; B: The peak value in the presence of calcium HBSS buffer only). […] A dose response curve was fitted using nonlinear regression model with a sigmoidal dose response. The IC50 was automatically produced by GraphPad Prism 5.0.
# T1 sequence (P41595 whole entry): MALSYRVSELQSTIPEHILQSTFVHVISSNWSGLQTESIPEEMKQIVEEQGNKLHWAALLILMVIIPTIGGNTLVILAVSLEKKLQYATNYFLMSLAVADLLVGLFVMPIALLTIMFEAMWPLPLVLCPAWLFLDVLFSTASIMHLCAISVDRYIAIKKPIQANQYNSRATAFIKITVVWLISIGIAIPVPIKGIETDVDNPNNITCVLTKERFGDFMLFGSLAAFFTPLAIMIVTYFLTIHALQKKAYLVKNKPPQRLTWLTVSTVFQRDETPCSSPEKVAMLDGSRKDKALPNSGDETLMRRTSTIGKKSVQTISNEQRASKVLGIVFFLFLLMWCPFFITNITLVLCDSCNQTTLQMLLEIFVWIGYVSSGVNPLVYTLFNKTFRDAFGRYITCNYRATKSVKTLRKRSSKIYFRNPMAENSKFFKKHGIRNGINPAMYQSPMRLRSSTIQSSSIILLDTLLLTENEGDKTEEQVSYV
row,Compound,IC50
1,"COc1ccc(S(=O)(=O)NC(C)CC#N)cc1C(=O)Nc1ccc(F)c(C)c1 (single isomer, unassigned) [Compound 11a, (S*)-5-(N-(1-Cyanopropan-2-yl)sulfamoyl)-N-(4-fluoro-3-methylphenyl)-2-methoxybenzamide]",68 nM
2,"COc1ccc(S(=O)(=O)N[C@H](C)CC#N)cc1C(=O)Nc1ccc(F)c(C)c1 (single isomer, unassigned) [Compound 11b, (R*)-5-(N-(1-Cyanopropan-2-yl)sulfamoyl)-N-(4-fluoro-3-methylphenyl-2-methoxybenzamide]",5.1 nM
3,"COc1ccc(S(=O)(=O)N[C@@H]2CC[C@H](O)C2)cc1C(=O)Nc1ccc(F)c(C)c1 (single isomer, unassigned) [Compound 15b, N-(4-Fluoro-3-methylphenyl)-5-(N-((cis)-3-hydroxycyclopentyl)sulfamoyl)-2-methoxybenzamide]",1 nM
4,"COc1ccc(S(=O)(=O)NC2CCCOC2)cc1C(=O)Nc1ccc(F)c(C)n1 (single isomer, unassigned) [Compound 16a, (S*)—N-(5-Fluoro-6-methylpyridin-2-yl)-2-methoxy-5-(N-(tetrahydro-2H-pyran-3-yl)sulfamoyl)benzamide]",1.1 nM
5,"COc1ccc(S(=O)(=O)NC2CCCOC2)cc1C(=O)Nc1ccc(F)c(C)n1 (single isomer, unassigned) [Compound 16b, (R*)—N-(5-Fluoro-6-methylpyridin-2-yl)-2-methoxy-5-(N-(tetrahydro-2H-pyran-3-yl)sulfamoyl)benzamide]",9.1 nM
6,"COc1ccc(S(=O)(=O)NCC(O)C(F)(F)F)cc1C(=O)Nc1ccc(F)c(C)n1 (single isomer, unassigned) [Compound 23a, (R*)—N-(5-fluoro-6-methylpyridin-2-yl)-2-methoxy-5-(N-(3,3,3-trifluoro-2-hydroxypropyl)sulfamoyl)benzamide]",4.7 nM
7,"COc1ccc(S(=O)(=O)NCC(O)C(F)(F)F)cc1C(=O)Nc1ccc(F)c(C)n1 (single isomer, unassigned) [Compound 23b, (S*)—N-(5-fluoro-6-methylpyridin-2-yl)-2-methoxy-5-(N-(3,3,3-trifluoro-2-hydroxypropyl)sulfamoyl)benzamide]",5 nM
8,"COc1ccc(S(=O)(=O)NC(C)C(F)(F)F)cc1C(=O)Nc1ccc(F)c(C)n1 (single isomer, unassigned) [Compound 29a, (S*)—N-(5-Fluoro-6-methylpyridin-2-yl)-2-methoxy-5-(N-(1,1,1-trifluoropropan-2-yl)sulfamoyl)benzamide]",3 nM
9,"COc1ccc(S(=O)(=O)NC(C)C(F)(F)F)cc1C(=O)Nc1ccc(F)c(C)n1 (single isomer, unassigned) [Compound 29b, (R*)—N-(5-Fluoro-6-methylpyridin-2-yl)-2-methoxy-5-(N-(1,1,1-trifluoropropan-2-yl)sulfamoyl)benzamide]",4.6 nM
10,"COCC(C)NS(=O)(=O)c1ccc(OC)c(C(=O)Nc2ccc(F)c(C(F)F)c2)c1 (single isomer, unassigned) [Compound 32a, (R*)—N-(3-(Difluoromethyl)-4-fluorophenyl)-2-methoxy-5-(N-(1-methoxypropan-2-yl)sulfamoyl)benzamide]",1.8 nM
11,"COCC(C)NS(=O)(=O)c1ccc(OC)c(C(=O)Nc2ccc(F)c(C(F)F)c2)c1 (single isomer, unassigned) [Compound 32b, (S*)—N-(3-(Difluoromethyl)-4-fluorophenyl)-2-methoxy-5-(N-(1-methoxypropan-2-yl)sulfamoyl)benzamide]",8.5 nM
12,"COc1ccc(S(=O)(=O)N[C@@H]2CC[C@H](O)C2)cc1C(=O)Nc1ccc(F)c(C(F)F)c1 (single isomer, unassigned) [Compound 33a, N-(3-(Difluoromethyl)-4-fluorophenyl)-5-(N-((cis)-3-hydroxycyclopentyl)sulfamoyl)-2-methoxybenzamide]",0.4 nM
13,"COC[C@H](C)NS(=O)(=O)c1ccc(OC)c(C(=O)Nc2ccc(F)cc2)c1 (single isomer, unassigned) [Compound 40a, (S*)—N-(4-Fluorophenyl)-2-methoxy-5-(N-(1-methoxypropan-2-yl)sulfamoyl) benzamide]",1.7 nM
14,"COC[C@@H](C)NS(=O)(=O)c1ccc(OC)c(C(=O)Nc2ccc(F)cc2)c1 (single isomer, unassigned) [Compound 40b, (R*)—N-(4-Fluorophenyl)-2-methoxy-5-(N-(1-methoxypropan-2-yl)sulfamoyl) benzamide]",9.5 nM
15,"COc1ccc(S(=O)(=O)NCC(O)C(F)(F)F)cc1C(=O)Nc1ccc(F)cc1 (single isomer, unassigned) [Compound 44a, (S*)—N-(4-Fluorophenyl)-2-methoxy-5-(N-(3,3,3-trifluoro-2-hydroxypropyl)sulfamoyl)benzamide]",2.4 nM
16,"COc1ccc(S(=O)(=O)NCC(O)C(F)(F)F)cc1C(=O)Nc1ccc(F)cc1 (single isomer, unassigned) [Compound 44b, (R*)—N-(4-Fluorophenyl)-2-methoxy-5-(N-(3,3,3-trifluoro-2-hydroxypropyl)sulfamoyl)benzamide]",3.2 nM
17,"COc1ccc(S(=O)(=O)N[C@@H]2CC[C@H](O)C2)cc1C(=O)Nc1ccc(F)cc1 (single isomer, unassigned) [Compound 45a, N-(4-Fluorophenyl)-5-(N-((cis)-3-hydroxycyclopentyl)sulfamoyl)-2-methoxybenzamide]",1.3 nM
18,"COc1ccc(S(=O)(=O)N[C@H]2CCN(C)C2=O)cc1C(=O)Nc1ccccc1Cl (single isomer, unassigned) [Compound 54a, (S*)—N-(2-Chlorophenyl)-2-methoxy-5-(1-methyl-2-oxopyrrolidin-3-yl) sulfamoyl)benzamide]",1.1 nM
19,"COc1ccc(S(=O)(=O)NC2CCN(C)C2=O)cc1C(=O)Nc1ccccc1Cl (single isomer, unassigned) [Compound 54b, (R*)—N-(2-Chlorophenyl)-2-methoxy-5-(N-(1-methyl-2-oxopyrrolidin-3-yl)sulfamoyl)benzamide]",1.2 nM
20,"COc1ccc(S(=O)(=O)N[C@@H](C)CC#N)cc1C(=O)Nc1ccccc1Cl (single isomer, unassigned) [Compound 60a, (S*)—N-(2-Chlorophenyl)-5-(N-(1-cyanopropan-2-yl)sulfamoyl)-2-methoxy benzamide]",0.4 nM
21,"COc1ccc(S(=O)(=O)N[C@H](C)CC#N)cc1C(=O)Nc1ccccc1Cl (single isomer, unassigned) [Compound 60b, (R*)—N-(2-chlorophenyl)-5-(N-(1-cyanopropan-2-yl)sulfamoyl)-2-methoxy benzamide]",0.4 nM
22,"COc1ccc(NS(=O)(=O)[C@H]2CCOC2)cc1C(=O)Nc1ccc(F)c(C)c1 (single isomer, unassigned) [Compound 202a, (S*)N-4-fluoro-3-methylphenyl)-2-methoxy-5-(tetrahydrofuran-3-sulfonamido)benzamide]",1 nM
23,"COc1ccc(NS(=O)(=O)[C@@H]2CCOC2)cc1C(=O)Nc1ccc(F)c(C)c1 (single isomer, unassigned) [Compound 202b, (R*)N-4-fluoro-3-methylphenyl)-2-methoxy-5-(tetrahydrofuran-3-sulfonamido)benzamide]",2.8 nM
24,"COc1ccc(N(C)S(=O)(=O)C2CCOC2)cc1C(=O)Nc1ccc(F)c(C)c1 (single isomer, unassigned) [Compound 204a, (R*)—N-(4-Fluoro-3-methylphenyl)-2-methoxy-5-(N-methyltetrahydrofuran-3-sulfonamido)benzamide]",50 nM
25,"COc1ccc(N(C)S(=O)(=O)C2CCOC2)cc1C(=O)Nc1ccc(F)c(C)c1 (single isomer, unassigned) [Compound 204b, (S*)—N-(4-Fluoro-3-methylphenyl)-2-methoxy-5-(N-methyltetrahydrofuran-3-sulfonamido)benzamide]",56 nM
26,"COc1ccc(S(=O)(=O)NC2CC[C@H](O)C2)cc1C(=O)Nc1ccc(F)c(C)c1 (stereo in doubt) [Compound 15a, N-(4-Fluoro-3-methylphenyl)-5-(N-((cis)-3-hydroxycyclopentyl)sulfamoyl)-2-methoxybenzamide]",2 nM
27,"COc1ccc(S(=O)(=O)NC2CCCC[C@@H]2O)cc1C(=O)Nc1ccc(F)c(C)n1 (stereo in doubt) [Compound 28a, N-(5-Fluoro-6-methylpyridin-2-yl)-5-(N-((trans)-2-hydroxycyclohexyl)sulfamoyl)-2-methoxybenzamide]",19 nM
28,"COc1ccc(S(=O)(=O)NC2CCCC[C@H]2O)cc1C(=O)Nc1ccc(F)c(C)n1 (stereo in doubt) [Compound 28b, N-(5-Fluoro-6-methylpyridin-2-yl)-5-(N-((trans)-2-hydroxycyclohexyl)sulfamoyl)-2-methoxybenzamide]",119 nM
29,"COc1ccc(S(=O)(=O)NC2CC[C@H](O)C2)cc1C(=O)Nc1ccc(F)c(C(F)F)c1 (stereo in doubt) [Compound 33b, N-(3-(Difluoromethyl)-4-fluorophenyl)-5-(N-((cis)-3-hydroxycyclopentyl)sulfamoyl)-2-methoxybenzamide]",0.4 nM
30,"COc1ccc(S(=O)(=O)NC2COC[C@@H]2O)cc1C(=O)Nc1ccccc1Cl (stereo in doubt) [Compound 56a, N-(2-Chlorophenyl)-5-(N-((cis)-4-hydroxytetrahydrofuran-3-yl)sulfamoyl)-2-methoxybenzamide]",0.1 nM

# — patent publication US10654837B2, “Sulphamoylaryl derivatives and use thereof as medicaments for the treatment of liver fibrosis” (Janssen Pharmaceutica NV, priority 2017, dated 2020)
